From US10000476B2, “Pyridone derivative, pharmaceutical containing the same and methods of use thereof” (KAKEN PHARMACEUTICAL CO., LTD., priority 2011, dated 2018)

Key:
[1] = tested on: auricular oedema induced by TPA in BALB/c mice; assay: Inhibition test of auricular oedema induced by single application of TPA in mouse; format: in vivo; settings: 1 w/v % solution applied topically to ear 1 hour before TPA, auricle thickness 6 hours after TPA, read-out: Auricular oedema inhibition rate (%)
Experimental: Inhibition Test of Auricular Oedema Induced by Single Application of TPA (12-O-tetradecanoylphorbol-13-acetate) in Mouse (In Vivo Efficacy Test Based on TNF-α-Related Cutaneous Inflammation)
Auricular oedema was induced by applying 54 μmol/L TPA-acetone solution on both the inner and outer sides of the left ear of BALB/c mice (application volume of 54 μmol/L TPA-acetone solution is 10 μL for each side of the left ear (i.e. 1.08 nmol TPA/auricle)). For a non-induced group, acetone was similarly applied instead of the 54 μmol/L TPA-acetone solution. The test substance was dissolved and prepared in a 1 w/v % solution of acetone containing 10 vol % DMSO (topical administration vehicle), then the test solution was applied onto both the inner and outer sides of the left ear of the mice (application volume of this test solution is 10 μL for each side of the left ear) 1 hour before the TPA application. For a control group, the topical administration vehicle was similarly applied instead of the test substance solution. For an etanercept group, 0.2 mL of a 5 mg/mL etanercept solution was intravenously administered (1 mg/mouse) the day before TPA application and 1.5 hours before TPA application. For a human IgG (hIgG) group (etanercept control group), 0.2 mL of a 5 mg/mL hIgG solution was intravenously administered (1 mg/mouse). Auricle thickness was measured under ether anesthesia the day before TPA application and 6 hours after TPA application for evaluation of the auricular oedema inhibition effect of the test substance based on the increase in auricle thickness as an index.
The auricular oedema inhibition rate (%) of the test substance was calculated based on the following formula using (A) the average value of the increase in auricular thickness of the group administered with the test substance, (B) the average value of the increase in auricular thickness of the non-induced group, and (C) the average value of the increase in auricular thickness of the control group. […]

TACE = TACE (Homo sapiens (Human), UniProt P78536); assay: TACE inhibition test (in vitro); format: biochemical; settings: fluorescent synthetic substrate, 37° C., 1.5 hours
Experimental: The nucleotide sequence of TACE has been reported by Moss et al. (Moss, M. L. et al., Nature 1997, 385, 733-736). Accordingly, the cDNA of TACE was obtained according to the prescribed method from THP-1 cells or the like, and then incorporated the cDNA into an expression vector. Next, this vector was transformed into mammalian cells or insect cells, and TACE expression was obtained.
The TACE inhibition test was carried out by measuring TACE activity in the presence and the absence of the test substance using the thus-obtained TACE as an enzyme, and a fluorescent synthetic substrate Nma(N-methylanthranilic acid)-Leu-Ala-Gln-Ala-Val-Arg-Ser-Ser-Lys(Dnp(dinitrophenyl))-D-Arg-NH2 (SEQ ID NO: 1) including the TACE-cleaved sequence of a membrane-bound TNF as a substrate. The TACE inhibition test method is shown below.
Namely, 90 μL of an enzyme solution prepared with an assay buffer A (50 mM tris-hydrochloric acid buffer (pH 7.5) including 200 mM sodium chloride, 5 mM calcium chloride, 10 μM zinc sulfate, and 2 mg/mL bovine serum albumin) and 90 μL of a fluorescent synthetic substrate prepared with an assay buffer B (50 mM tris-hydrochloric acid buffer (pH 7.5) including 200 mM sodium chloride, 5 mM calcium chloride, 10 μM zinc sulfate, and 0.05% PLURONIC F-68) were mixed together, and reacted at 37° C. for 1.5 hours. Enzyme activity was then determined by measuring with a fluorescence intensity meter (Labsystems, Fluoroskan Ascent) at an excitation wavelength of 355 nm and a measurement wavelength of 460 nm.
From the enzyme activity in the presence or the absence of the test substance, the inhibition rate was determined, and the 50% inhibitiory concentration (IC50) of the test substance was calculated.

Chain of TACE (P78536 215-824): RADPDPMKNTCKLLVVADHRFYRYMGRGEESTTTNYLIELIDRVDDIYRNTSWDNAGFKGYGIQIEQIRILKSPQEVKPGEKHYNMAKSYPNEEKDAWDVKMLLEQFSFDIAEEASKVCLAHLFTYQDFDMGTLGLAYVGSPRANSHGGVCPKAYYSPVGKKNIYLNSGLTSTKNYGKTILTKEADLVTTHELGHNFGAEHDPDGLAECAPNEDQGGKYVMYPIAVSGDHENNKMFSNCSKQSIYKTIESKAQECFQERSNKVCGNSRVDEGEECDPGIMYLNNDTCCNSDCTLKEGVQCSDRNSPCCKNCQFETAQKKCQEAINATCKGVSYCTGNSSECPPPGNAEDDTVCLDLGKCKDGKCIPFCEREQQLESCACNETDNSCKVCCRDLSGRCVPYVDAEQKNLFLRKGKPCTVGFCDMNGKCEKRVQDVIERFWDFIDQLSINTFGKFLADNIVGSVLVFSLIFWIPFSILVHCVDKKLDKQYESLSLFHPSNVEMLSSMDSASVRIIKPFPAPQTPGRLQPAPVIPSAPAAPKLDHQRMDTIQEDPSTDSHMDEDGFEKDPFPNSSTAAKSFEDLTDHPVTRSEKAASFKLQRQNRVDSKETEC

IC50 (TACE) [µM] | Compound | inhibition in vivo at 10000 µg/mL [1] [%]
< 0.1 | N#Cc1ccc(C2(Cn3cccc(Cl)c3=O)NC(=O)NC2=O)cc1 (centres unmarked) [Compound I-138] | –
< 0.1 | O=C1NC(=O)C(Cn2cccc(Br)c2=O)(c2ccccc2)N1 (centres unmarked) [Compound I-139] | –
< 0.1 | O=C1NC(=O)C(Cn2cccc(C(F)(F)F)c2=O)(c2ccccc2)N1 (centres unmarked) [Compound I-140] | –
< 0.1 | COc1ccc(C2(Cn3cccc(C(F)(F)F)c3=O)NC(=O)NC2=O)cc1 (centres unmarked) [Compound I-141] | –
< 0.1 | N#Cc1ccc(C2(Cn3cccc(C(F)(F)F)c3=O)NC(=O)NC2=O)cc1 (centres unmarked) [Compound I-142] | –
0.1 to 1 | COc1cccn(CC2(c3ccccc3)NC(=O)NC2=O)c1=O (centres unmarked) [Compound I-143] | –
0.1 to 1 | C=C(C)c1cccn(CC2(c3ccc(OC)cc3)NC(=O)NC2=O)c1=O (centres unmarked) [Compound I-144] | –
< 0.1 | O=C1NC(=O)C(Cn2cccc(F)c2=O)(c2ccc(F)c(F)c2)N1 (centres unmarked) [Compound I-145] | –
< 0.1 | O=C1NC(=O)C(Cn2cccc(Cl)c2=O)(c2ccc(F)c(F)c2)N1 (centres unmarked) [Compound I-146] | –
< 0.1 | O=C1NC(=O)C(Cn2cccc(Br)c2=O)(c2ccc(F)c(F)c2)N1 (centres unmarked) [Compound I-147] | –
0.1 to 1 | O=C1NC(=O)C(Cn2cccc(CO)c2=O)(c2ccc(F)c(F)c2)N1 (centres unmarked) [Compound I-148] | –
< 0.1 | O=C1NC(=O)C(Cn2cccc(Br)c2=O)(c2ccc(Cc3ccccc3)cc2)N1 (centres unmarked) [Compound I-149] | –
< 0.1 | O=C1NC(=O)C(Cn2cccc(Cl)c2=O)(c2ccc(Cc3ccccc3)cc2)N1 (centres unmarked) [Compound I-150] | –
0.1 to 1 | O=C1NC(=O)C(Cn2cccc(CO)c2=O)(c2ccc(Cc3ccccc3)cc2)N1 (centres unmarked) [Compound I-151] | –
< 0.1 | O=C1NC(=O)C(Cn2cccc(F)c2=O)(c2ccc(Cc3ccccc3)cc2)N1 (centres unmarked) [Compound I-152] | –
< 0.1 | Cc1cccn(CC2(c3cccc(F)c3F)NC(=O)NC2=O)c1=O (centres unmarked) [Compound I-153] | –
< 0.1 | Cc1cccn(CC2(c3cc(F)ccc3F)NC(=O)NC2=O)c1=O (centres unmarked) [Compound I-154] | –
< 0.1 | O=C1NC(=O)C(Cn2ccccc2=O)(c2ccc(F)c(F)c2)N1 (centres unmarked) [Compound I-155] | –
0.1 to 1 | O=C1NC(=O)C(Cn2ccccc2=O)(c2ccc(Cc3ccccc3)cc2)N1 (centres unmarked) [Compound I-156] | –
< 0.1 | O=C1NC(=O)C(Cn2ccccc2=O)(c2cc(F)c(F)c(F)c2)N1 (centres unmarked) [Compound I-157] | –

Second part, the compound before the results:

Compound | IC50 (TACE) [µM] | inhibition in vivo at 10000 µg/mL [1] [%]
Cc1cccn(CC2(c3ccc(OC4C=CCCC4)cc3)NC(=O)NC2=O)c1=O (centres unmarked) [Compound I-36, 5-[4-(cyclohex-2-en-1-yloxy)phenyl]-5-[(3-methyl-2-oxopyridin-1(2H)-yl)methyl]imidazolidine-2,4-dione] | < 0.1 | 58
Cc1cccn(CC2(c3ccc(OC4CCCCC4)cc3)NC(=O)NC2=O)c1=O (centres unmarked) [Compound I-37, 5-[4-(cyclohexyloxy)phenyl]-5-[(3-methyl-2-oxopyridin-1(2H)-yl)methyl]imidazolidine-2,4-dione] | < 0.1 | 78
Cc1cc(C2(Cn3cccc(C)c3=O)NC(=O)NC2=O)ccc1OC1C=CCCC1 (centres unmarked) [Compound I-38] | < 0.1 | 41
Cc1cccn(CC2(c3ccc(Oc4cccc(F)c4)cc3)NC(=O)NC2=O)c1=O (centres unmarked) [Compound I-84] | < 0.1 | 53
Cc1cccn(CC2(c3ccc(Oc4ccc(F)cc4)cc3)NC(=O)NC2=O)c1=O (centres unmarked) [Compound I-85] | < 0.1 | 78
Cc1cccn(CC2(c3ccc(Sc4ccccc4)cc3)NC(=O)NC2=O)c1=O (centres unmarked) [Compound I-102] | < 0.1 | 50
Cc1cccn(CC2(c3ccc(Oc4ccccc4F)c(F)c3)NC(=O)NC2=O)c1=O (centres unmarked) [Compound I-104] | < 0.1 | –
Cc1cccn(CC2(c3ccc4c(c3)OCCCO4)NC(=O)NC2=O)c1=O (centres unmarked) [Compound I-105] | < 0.1 | –
Cc1cccn(CC2(c3ccc(C#Cc4ccccc4)cc3)NC(=O)NC2=O)c1=O (centres unmarked) [Compound I-106] | < 0.1 | –
Cc1cccn(CC2(c3ccc(CCc4ccccc4)cc3)NC(=O)NC2=O)c1=O (centres unmarked) [Compound I-107] | < 0.1 | –
C=C(C)c1ccc(C2(Cn3cccc(C)c3=O)NC(=O)NC2=O)cc1 (centres unmarked) [Compound I-108] | < 0.1 | –
Cc1cccn(CC2(c3ccc(/C=C/C4CCCCC4)cc3)NC(=O)NC2=O)c1=O (centres unmarked) [Compound I-109] | 0.1 to 1 | –
Cc1cccn(CC2(c3ccc(C#Cc4ccccn4)cc3)NC(=O)NC2=O)c1=O (centres unmarked) [Compound I-110] | < 0.1 | –
Cc1cccn(CC2(c3ccc(Oc4ccc(F)cc4)c(F)c3)NC(=O)NC2=O)c1=O (centres unmarked) [Compound I-111] | < 0.1 | –
Cc1cccn(CC2(c3ccc(Oc4cccc(F)c4)c(F)c3)NC(=O)NC2=O)c1=O (centres unmarked) [Compound I-112] | < 0.1 | –
COc1ccccc1Oc1ccc(C2(Cn3cccc(C)c3=O)NC(=O)NC2=O)cc1 (centres unmarked) [Compound I-113] | < 0.1 | –
COc1ccccc1Oc1ccc(C2(Cn3cccc(C)c3=O)NC(=O)NC2=O)cc1F (centres unmarked) [Compound I-114] | < 0.1 | –
Cc1cccn(CC2(c3ccc(CCc4ccccn4)cc3)NC(=O)NC2=O)c1=O (centres unmarked) [Compound I-115] | < 0.1 | –
CCc1ccc(C2(Cn3cccc(C)c3=O)NC(=O)NC2=O)cc1 (centres unmarked) [Compound I-116] | < 0.1 | –
Cc1cccn(CC2(c3ccc(C(C)C)cc3)NC(=O)NC2=O)c1=O (centres unmarked) [Compound I-117] | < 0.1 | –

Compound | IC50 (TACE) [µM] | inhibition in vivo at 10000 µg/mL [1] [%]
Cc1cccn(CC2(c3ccc(CCC4CCCCC4)cc3)NC(=O)NC2=O)c1=O (centres unmarked) [Compound I-118] | 0.1 to 1 | –
CCOc1ccc(C2(Cn3cccc(C)c3=O)NC(=O)NC2=O)cc1 (centres unmarked) [Compound I-119] | < 0.1 | –
Cc1cccn(CC2(c3ccc(OC(C)C)cc3)NC(=O)NC2=O)c1=O (centres unmarked) [Compound I-120] | < 0.1 | –
Cc1cccn(CC2(c3ccc(CC(C)C)cc3)NC(=O)NC2=O)c1=O (centres unmarked) [Compound I-121] | < 0.1 | –
Cc1cccn(CC2(c3ccc(Oc4cccnc4)c(F)c3)NC(=O)NC2=O)c1=O (centres unmarked) [Compound I-122] | < 0.1 | –
Cc1cccn(CC2(c3ccc(Oc4ccccc4)c(Cl)c3)NC(=O)NC2=O)c1=O (centres unmarked) [Compound I-123] | < 0.1 | –
Cc1cccn(CC2(c3ccc(OC4CCCC4)cc3)NC(=O)NC2=O)c1=O (centres unmarked) [Compound I-124] | < 0.1 | –
Cc1cccn(CC2(c3ccc(Cl)c(Cl)c3)NC(=O)NC2=O)c1=O (centres unmarked) [Compound I-125] | < 0.1 | –
Cc1cccn(CC2(c3ccc(F)c(Cl)c3)NC(=O)NC2=O)c1=O (centres unmarked) [Compound I-126] | < 0.1 | –
COc1cc(C2(Cn3cccc(C)c3=O)NC(=O)NC2=O)cc(F)c1F (centres unmarked) [Compound I-127] | < 0.1 | –
Cc1ccc(C2(Cn3cccc(C)c3=O)NC(=O)NC2=O)c(F)c1F (centres unmarked) [Compound I-128] | < 0.1 | –
Cc1cccn(CC2(c3ccc(Oc4ccc(Cl)cc4)cc3)NC(=O)NC2=O)c1=O (centres unmarked) [Compound I-130] | – | 44
Cc1cc(C2(Cn3cccc(C)c3=O)NC(=O)NC2=O)ccc1OC1CCCCC1 (centres unmarked) [Compound I-131] | < 0.1 | –
O=C1NC(=O)C(Cn2cccc(F)c2=O)(c2ccccc2)N1 (centres unmarked) [Compound I-132] | < 0.1 | –
COc1ccc(C2(Cn3cccc(F)c3=O)NC(=O)NC2=O)cc1 (centres unmarked) [Compound I-133] | < 0.1 | –
N#Cc1ccc(C2(Cn3cccc(F)c3=O)NC(=O)NC2=O)cc1 (centres unmarked) [Compound I-134] | < 0.1 | –
O=C1NC(=O)C(Cn2cccc(F)c2=O)(c2ccc3ccccc3c2)N1 (centres unmarked) [Compound I-135] | < 0.1 | –
O=C1NC(=O)C(Cn2cccc(Cl)c2=O)(c2ccc(F)cc2)N1 (centres unmarked) [Compound I-136] | < 0.1 | –
COc1ccc(C2(Cn3cccc(Cl)c3=O)NC(=O)NC2=O)cc1 (centres unmarked) [Compound I-137] | < 0.1 | –
